This note sets out measurements from patent publication US11219656B2 (Industry-Academic Cooperation Foundation, Yonsei University, priority 2011, dated 2022).

Each structure is given as a SMILES string.

One data set has as its system calvaria. Kind of data set: Calvaria thickness measurement, gallocatechin and methyl vanillate treatment. Format: cell-based. The note with it: calvaria of 4-day-old postnatal mice under differentiation, one week (FIG. 7). On the procedure: While inducing the differentiation in the calvaria of 4-day-old postnatal mice supplied by Orient Bio. 2 nM of gallocatechin and 0.2 nM of methyl vanillate were treated for one week.

Data set [1] relates to ALP (alkaline phosphatase). Kind of data set: ALP activity analysis. Format: cell-based. The following applies: within the concentration gradient (FIG. 9 and FIG. 10).
Another data set deals with SD-based rat. The following applies: single oral dose of 1 g/kg. On the procedure:
6-week old specific pathogen-free (SPF) SD-based rat supplied from the DAEHAN Experiment Supply Center was used and the acute toxicity experiments were conducted as follows.
The animal mortality, clinical symptoms, and change in the body weight were observed and then hematologic testing and blood biochemical tests were conducted.

Data set [2] has as its system ALP (alkaline phosphatase) in primary osteoblast (POB) cells. Kind of data set: ALP staining in differentiated primary osteoblast cells. It is filed as cell-based. The note with it: 20 μM, differentiated and stained for 9 days (FIG. 8). On the procedure: In addition, in order to confirm the activity of ALP (alkaline phosphatase) showing the activation of bones, 20 μM of gallocatechin was treated with primary osteoblast (POB) cells, and allowed to differentiate and stain for 9 days.

`COC(=O)c1ccc(O)c(OC)c1` [methyl vanillate]: the “thickness of the calvaria” value in the data set with calvaria (0.2 nM methyl vanillate) was “increased”. Also, in data set [1], the “activity of ALP” value is recorded as “increased”.

Take `Oc1cc(O)c2c(c1)O[C@H](c1cc(O)c(O)c(O)c1)[C@@H](O)C2` [gallocatechin]: in the data set with SD-based rat, the “specific clinical symptoms and died animals” value is given as “not found”; the “toxic changes in body weight, blood tests, blood biochemical tests and autopsy findings” value is on record as “not observed”. For the same compound, the “thickness of the calvaria” value in the data set on calvaria (2 nM gallocatechin) was “increased”. In addition, the “expression of ALP (staining)” value in data set [2] is given as “increased”. In data set [1], the “activity of ALP” value is “increased”.
